The values below come from patent US10059667B2, “Antidiabetic compounds” (MERCK SHARP & DOHME CORP., priority 2014, dated 2018).

The target of test [1] is T1, Human GPR40 (Homo sapiens (Human), UniProt O14842). The test can be described thus: Inositol Phosphate Turnover (IP1) Assay 1, HEK cells stably expressing human GPR40, 3H-inositol SPA. It counts as cell-based. As to conditions: HEK cells stably expressing human GPR40, 96-well. Here is the method: (§1) Human and mouse GPR40 stable cell-lines were generated in CHO cells stably expressing NFAT BLA (Beta-lactamase). A human GPR40 stable cell-line was generated in HEK cells stably expressing the aequorin expressing reporter. The expression plasmids were transfected using lipofectamine (Life Technologies) following manufacturer's instructions. Stable cell-lines were generated following drug selection.
The assay was performed in 96-well format. HEK cells stably expressing human GPR40 were plated to be 60-80% confluent within 72 h. After 72 h, the plates were aspirated and the cells washed with inositol-free DMEM (ICN). The wash media was replaced with 150 μL of 3H-inositol labeling media (inositol-free media containing 0.4% human albumin or 0.4% mouse albumin, 1× pen/strep antibiotics, glutamine, 25 mM HEPES to which was added 3H-myo-inositol NEN #NET114A 1 mCi/mL, 25 Ci/mmol diluted 1:150 in loading media with a final specific radioactivity of 1 μCi/150 μL). Alternatively, the human and mouse albumin can be added after the overnight labeling step before the addition of LiCl.
The assay was typically run the next day after 18 h labeling. On the day of the assay, 5 μL of 300 mM LiCl was added to all wells and incubated at 37 degrees for 20 min. 0.75 μL of each compound was added and incubated with the cells for 60 min at 37 degrees. The media was then aspirated off and the assay terminated with the addition of 60 μL 10 mM formic acid. The cells were lysed for 60 min at room temperature. 15-30 μL of lysate was mixed with 70 μL/1 mg YSi SPA beads (Amersham) in clear bottom Isoplates. The plates were shaken for 2 h at room temperature. Beads were allowed to settle and the plates were counted in the Wallac Microbeta.

Test [2] has as its target T1, Human GPR40. Briefly: FLIPR assay, agonist-induced calcium mobilization in GPR40/CHO NFAT BLA cells. It counts as cell-based. The procedure:
as §1
FLIPR (Fluorimetric Imaging Plate Reader, Molecular Devices) assays were performed to measure agonist-induced calcium mobilization of the stable clones. For the FLIPR assay, one day before assay, GPR40/CHO NFAT BLA cells were seeded into black-wall-clear-bottom 384-well plates (Costar) at 1.4×10e4 cells/20 μL medium/well. The cells were incubated with 20 μl/well of the assay buffer (HBSS, 0.1% BSA, 20 mM HEPES, 2.5 mM probenecid, pH 7.4) containing 8 μM fluo-4, AM, 0.08% pluronic acid at room temperature for 100 minutes. Fluorescence output was measured using FLIPR. Compounds were dissolved in DMSO and diluted to desired concentrations with assay buffer. 13.3 μL/well of compound solution was added.

T1 sequence (O14842 whole entry): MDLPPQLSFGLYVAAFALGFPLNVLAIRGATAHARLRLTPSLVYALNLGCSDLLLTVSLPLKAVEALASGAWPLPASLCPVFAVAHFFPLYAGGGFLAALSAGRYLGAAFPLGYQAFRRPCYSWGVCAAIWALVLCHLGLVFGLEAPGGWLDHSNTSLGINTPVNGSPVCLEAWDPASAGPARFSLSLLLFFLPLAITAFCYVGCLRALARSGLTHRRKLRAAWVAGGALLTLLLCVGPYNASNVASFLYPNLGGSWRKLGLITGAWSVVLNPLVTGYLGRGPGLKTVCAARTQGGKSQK

In general, EC50 refers to the concentration that produces a half-maximal response. Consider `COc1cccc(C2CC2COc2cccc([C@@H](CC(=O)O)C3CC3)c2)c1` (single isomer, unassigned) [Example 62, (3 S)-3-cyclopropyl-3-(3-((2-(3-methoxyphenyl)cyclopropyl)methoxy)phenyl)propanoic acid], for which the EC50 on Human GPR40 [1] came out at 166 nM; at Human GPR40 [2] it was 5.7 nM.

As for `COc1cccc(C2CC2COc2cccc([C@@H](CC(=O)O)C3CC3)c2)c1` (single isomer, unassigned) [Example 63, (3 S)-3-cyclopropyl-3-(3-((2-(3-methoxyphenyl)cyclopropyl)methoxy)phenyl)propanoic acid], the figures for the EC50 at Human GPR40 [1] and at Human GPR40 [2] were 348 nM and 15 nM, respectively.

On to `C[C@H](C(=O)O)[C@H](c1cccc(O[C@H]2CCCN(Cc3cc(C(F)(F)F)ccc3C(F)(F)F)C2)c1)C1CC1` [Example 1, (2S,3R)-3-(3-(((S)-1-(2,5-bis(trifluoromethyl)benzyl)piperidin-3-yl)oxy)phenyl)-3-cyclopropyl-2-methylpropanoic acid], for which the EC50 at Human GPR40 [1] came out at 89 nM; at Human GPR40 [2], 1.9 nM.

As for `O=C(O)C[C@H](c1cccc(OCCC2CCN(Cc3cc(C(F)(F)F)ccc3C(F)(F)F)C2)c1)C1CC1` (stereo partly drawn) [Example 2, (3S)-3-(3-(2-(1-(2,5-Bis(trifluoromethyl)benzyl)pyrrolidin-3-yl)ethoxy)phenyl)-3-cyclopropylpropanoic acid], the figures for the EC50 on Human GPR40 [1] and at Human GPR40 [2] were 1830 nM and 173 nM, respectively.

Turning to `O=C(O)C[C@H](c1cccc(OCC2CCCCN2Cc2cc(C(F)(F)F)ccc2C(F)(F)F)c1)C1CC1` (stereo partly drawn) [Example 3, (3S)-3-(3-((1-(2,5-Bis(trifluoromethyl)benzyl)piperidin-2-yl)methoxy)phenyl)-3-cyclopropylpropanoic acid], the EC50 on Human GPR40 [1] worked out at 8380 nM; at Human GPR40 [2] it was 126 nM.

On to `C[C@H](C(=O)O)[C@H](c1cccc(OCC2CN(c3cc(C(F)(F)F)ccc3C(F)(F)F)C2)c1)C1CC1` [Example 4, (2S,3R)-3-(3-((1-(2,5-Bis(trifluoromethyl)phenyl)azetidin-3-yl)methoxy)phenyl)-3-cyclopropyl-2-methylpropanoic acid], for which the EC50 was 485 nM on Human GPR40 [1] and 77 nM on Human GPR40 [2].

Turning to `CC1(COc2cccc([C@@H](CC(=O)O)C3CC3)c2)CN(Cc2cc(C(F)(F)F)ccc2C(F)(F)F)C1` [Example 6, (S)-3-(3-((1-(2,5-Bis(trifluoromethyl)benzyl)-3-methylazetidin-3-yl)methoxy)phenyl)-3-cyclopropylpropanoic acid], the values for the concentration for a half-maximal effect (EC50) on Human GPR40 [1] and at Human GPR40 [2] were 2720 nM and 95 nM, respectively.

`C[C@H](C(=O)O)[C@H](c1cccc(O[C@@H]2CCCN(Cc3cc(C(F)(F)F)ccc3C(F)(F)F)C2)c1)C1CC1` [Example 7, (2S,3R)-3-(3-(((R)-1-(2,5-bis(trifluoromethyl)benzyl)piperidin-3-yl)oxy)phenyl)-3-cyclopropyl-2-methylpropanoic acid]: the EC50 at Human GPR40 [1] was found to be 89 nM; on Human GPR40 [2], 2 nM.

`O=C(O)C[C@H](c1cccc(OC2CC3CN(Cc4cc(C(F)(F)F)ccc4C(F)(F)F)CC3C2)c1)C1CC1` (stereo partly drawn) [Example 8, (3S)-3-(3-((2-(2,5-bis(trifluoromethyl)benzyl)octahydrocyclopenta[c]pyrrol-5-yl)oxy)phenyl)-3-cyclopropylpropanoic acid]: the EC50 is 866 nM on Human GPR40 [1] and 15 nM on Human GPR40 [2].

As for `CC(Oc1cccc([C@H](C2CC2)[C@H](C)C(=O)O)c1)C1CN(Cc2cc(C(F)(F)F)ccc2C(F)(F)F)C1` (stereo partly drawn) [Example 9, (2S,3R)-3-(3-(1-(1-(2,5-Bis(trifluoromethyl)benzyl)azetidin-3-yl)ethoxy)phenyl)-3-cyclopropyl-2-methylpropanoic acid], the EC50 at Human GPR40 [1] is 217 nM; on Human GPR40 [2], 4 nM.

On to `O=C(O)C[C@H](c1cccc(OCC2(F)CN(Cc3cc(C(F)(F)F)ccc3C(F)(F)F)C2)c1)C1CC1` [Example 11, (S)-3-(3-((1-(2,5-Bis(trifluoromethyl)benzyl)-3-fluoroazetidin-3-yl)methoxy)phenyl)-3-cyclopropylpropanoic acid], for which the values for the half-maximal effective concentration (EC50) on Human GPR40 [1] and at Human GPR40 [2] were 967 nM and 22 nM, respectively.

`COc1ccc(F)cc1CN1CCC(Oc2cccc([C@@H](CC(=O)O)C3CC3)c2)C1` (stereo partly drawn) [Example 12, (3S)-3-Cyclopropyl-3-(3-((1-(5-fluoro-2-methoxybenzyl)pyrrolidin-3-yl)oxy)phenyl)propanoic acid]: the concentration giving a half-maximal response (EC50) came to 4660 nM on Human GPR40 [1] and 111 nM on Human GPR40 [2].

With `O=C(O)C[C@H](c1cccc(OCC2CCN(c3cc(C(F)(F)F)ccc3C(F)(F)F)C2)c1)C1CC1` (stereo partly drawn) [Example 13, (3S)-3-(3-((1-(2,5-Bis(trifluoromethyl)phenyl)pyrrolidin-3-yl)methoxy)phenyl)-3-cyclopropylpropanoic acid], the EC50 worked out at 1850 nM at Human GPR40 [1] and 129 nM on Human GPR40 [2].

For the molecule `C[C@H](C(=O)O)[C@H](c1cccc(OCC2CC(NCc3cc(C(F)(F)F)ccc3C(F)(F)F)C2)c1)C1CC1` (stereo partly drawn) [Example 14, (2S,3R)-3-(3-((3-((2,5-Bis(trifluoromethyl)benzyl)amino)cyclobutyl)methoxy)phenyl)-3-cyclopropyl-2-methylpropanoic acid], the EC50 at Human GPR40 [1] was 956 nM; at Human GPR40 [2], 26 nM.

For the molecule `O=C(O)C[C@H](c1cccc(OC2CC3(C2)CN(Cc2cc(C(F)(F)F)ccc2C(F)(F)F)C3)c1)C1CC1` [Example 15, (S)-3-(3-((2-(2,5-Bis(trifluoromethyl)benzyl)-2-azaspiro[3.3]heptan-6-yl)oxy)phenyl)-3-cyclopropylpropanoic acid], the figures for the half-maximal effective concentration (EC50) at Human GPR40 [1] and on Human GPR40 [2] were 2080 nM and 79 nM, respectively.

Regarding `C[C@H](C(=O)O)[C@H](c1cccc(OCC2CN(c3cc(C(F)(F)F)ccn3)C2)c1)C1CC1` [Example 16, (2S,3R)-3-Cyclopropyl-2-methyl-3-(3-((1-(4-(trifluoromethyl)pyridin-2-yl)azetidin-3-yl)methoxy)phenyl)propanoic acid], the half-maximal effective concentration (EC50) at Human GPR40 [1] was 631 nM; at Human GPR40 [2] it was 79 nM.

Regarding `O=C(O)C[C@H](c1cccc(OCCC2CN(Cc3cc(C(F)(F)F)ccc3C(F)(F)F)C2)c1)C1CC1` [Example 18, (S)-3-(3-(2-(1-(2,5-Bis(trifluoromethyl)benzyl)azetidin-3-yl)ethoxy)phenyl)-3-cyclopropylpropanoic acid], the EC50 at Human GPR40 [1] worked out at 3710 nM; on Human GPR40 [2], 359 nM.

For the molecule `COc1ccc(F)cc1CN1CC(COc2cccc([C@@H](CC(=O)O)C3CC3)c2)C1` [Example 19, (S)-3-Cyclopropyl-3-(3-((1-(5-fluoro-2-methoxybenzyl)azetidin-3-yl)methoxy)-phenyl)propanoic acid], the EC50 at Human GPR40 [1] worked out at 4780 nM; at Human GPR40 [2], 497 nM.

Regarding `COc1ccc(F)cc1CN1CCC(COc2cccc([C@@H](CC(=O)O)C3CC3)c2)C1` (stereo partly drawn) [Example 20, (3S)-3-Cyclopropyl-3-(3-((1-(5-fluoro-2-methoxybenzyl)pyrrolidin-3-yl)methoxy)phenyl)propanoic acid], the EC50 was determined as 10000 nM on Human GPR40 [1] and 266 nM at Human GPR40 [2].

With `C[C@H](C(=O)O)[C@H](c1cccc(OCC2CN(c3ncccc3C(F)(F)F)C2)c1)C1CC1` [Example 21, (2S,3R)-3-Cyclopropyl-2-methyl-3-(3-((1-(3-(trifluoromethyl)pyridin-2-yl)azetidin-3-yl)methoxy)phenyl)propanoic acid], the concentration for a half-maximal effect (EC50) on Human GPR40 [1] was 297 nM; on Human GPR40 [2] it was 13 nM.

For `CC1(C)CN(Cc2cc(C(F)(F)F)ccc2C(F)(F)F)CC1COc1cccc([C@@H](CC(=O)O)C2CC2)c1` (stereo partly drawn) [Example 22, (3S)-3-(3-((1-(2,5-Bis(trifluoromethyl)benzyl)-4,4-dimethylpyrrolidin-3-yl)methoxy)phenyl)-3-cyclopropylpropanoic acid], the values for the EC50 at Human GPR40 [1] and on Human GPR40 [2] were 2610 nM and 85 nM, respectively.

`O=C(O)C[C@H](c1cccc(OC2CCN(Cc3cc(C(F)(F)F)ccc3C(F)(F)F)C2)c1)C1CC1` (stereo partly drawn) [Example 23, (3S)-3-(3-((1-(2,5-Bis(trifluoromethyl)benzyl)pyrrolidin-3-yl)oxy)phenyl)-3-cyclopropylpropanoic acid]: the half-maximal effective concentration (EC50) on Human GPR40 [1] was found to be 1040 nM; on Human GPR40 [2], 72 nM.

For the molecule `O=C(O)C[C@H](c1cccc(OC2CCCN(Cc3cc(C(F)(F)F)ccc3C(F)(F)F)C2)c1)C1CC1` (stereo partly drawn) [Example 24, (3S)-3-(3-((1-(2,5-Bis(trifluoromethyl)benzyl)piperidin-3-yl)oxy)phenyl)-3-cyclopropylpropanoic acid], the concentration giving a half-maximal response (EC50) was determined as 524 nM at Human GPR40 [1] and 7.4 nM on Human GPR40 [2].
